Structures can show the parent of a compound that is named as a salt.
Tested on: Demodex
Assay: Acaricidal experiment: Demodex culture in vitro, survival time of mites
Conditions: adult Demodex, 20° C., 96% humidity
Description: This study strictly followed the ethical principles of the Declaration of Helsinki, and Ethical Guidelines for Biomedical Research Involving Human Subjects. In this study, Demodex was collected from patients diagnosed with ocular Demodex infection. Those meeting the inclusion criteria would be enrolled after an informed conversation and signing an informed consent form.
Demodex detection was performed according to the conventional eyelash microscopic examination method. 3 eyelashes were extracted from each eyelid, and a total of 12 eyelashes were extracted. The extracted eyelashes were immediately placed on a glass slide, and one piece of each three eyelashes was placed under an ordinary light microscope for observation. Demodex at all stages were counted and classified according to morphology (specific criteria were: Demodex brevis at a head-to-body ratio of 1:1 and Demodex folliculorum at a head-to-body ratio of 1:3 to 1:4). Only adults that were fully exposed to the field of view were taken as subjects (larvae and eggs were not considered as subjects since they were more fragile in early life).
Based on the above detection of Demodex, 50 μl of different solutions were added to each slide, and the survival of the worms was observed every 1 hour. The death was judged by observing whether the worms were active (body, limbs, or the like) under a microscope. Two skilled Demodex-related experimenters observed and judged separately during the experiment. If the judgment results were different, the third skilled experimenter was asked to make an independent judgment. The culture in vitro was performed in a climate chamber at 20° C. and 96% humidity. Slides were transported in a humid chamber under observation and the solution was added appropriately to ensure high humidity before vacuoles appeared on solution evaporation.

N[C@H]1C[C@@H]1c1ccccc1 [Hydrochloride salt of V-C]
Average survival time of mites (concentration 1 mg/mL in 0.9% NaCl solution): 7.44 ± 6.07 h | Average survival time of mites (concentration 3 mg/mL in 0.9% NaCl solution): 5.66 ± 0.91 h | Average survival time of mites (concentration 10 mg/mL in 0.9% NaCl solution): 2.89 ± 1.08 h | Average survival time of mites (concentration 30 mg/mL in 0.9% NaCl solution): 2.24 ± 1.32 h
